Our source for the Ki and elimination half-life values is patent publication US9296681B2, “Cycloalkylmethylamines” (Reviva Pharmaceuticals, Inc., priority 2006, dated 2016).

What is called Ki is a measure of affinity in units of concentration, obtained from inhibition or displacement.

Where only a bound is given, the exact number is not on record here.

Data set [1] deals with human recombinant dopamine transporter (DAT) (Homo sapiens (Human), UniProt Q01959). As to the kind of experiment: radioligand binding assay, dopamine transporter. The note with it: 11 test concentrations, duplicates. On the procedure:
(§1) The monoamine transporters inhibitory activities of selected compounds cycloalkylmethylamine derivatives comprising Formula (I) are reported herein. The compounds were evaluated using well established radioligand binding assays protocols (Galli, A. et al., J. Exp. Biol. 1995, 198, 2197-2212; Giros, B. et al., Trends Pharmcol. Sci. 1993, 14, 43-49; Gu, H. et al., J. Biol. Chem. 1994, 269(10), 7124-7130; Shearman, L. P. et al, Am. J. Physiol., 1998, 275 (6 Pt 1), C1621-1629; Wolf, W. A. et al., J. Biol. Chem. 1992, 267(29), 20820-20825). The human recombinant transporter proteins dopamine (DAT), norepinephrine (NET) and serotonin (SERT) were selected for the in vitro assays. The radioligand binding assays were carried out at 11 different test concentrations […] to 1 μM.
(§2) The assays were carried out in duplicates and the quantitative data are reported as Ki in the TABLE 1.

In data set [2] the target is human recombinant norepinephrine transporter (NET) (Homo sapiens (Human), UniProt P23975). Briefly: radioligand binding assay, norepinephrine transporter. The following applies: 11 test concentrations, duplicates. On the procedure: as §1, §2
human recombinant norepinephrine transporter (NET), sequence (P23975 whole entry): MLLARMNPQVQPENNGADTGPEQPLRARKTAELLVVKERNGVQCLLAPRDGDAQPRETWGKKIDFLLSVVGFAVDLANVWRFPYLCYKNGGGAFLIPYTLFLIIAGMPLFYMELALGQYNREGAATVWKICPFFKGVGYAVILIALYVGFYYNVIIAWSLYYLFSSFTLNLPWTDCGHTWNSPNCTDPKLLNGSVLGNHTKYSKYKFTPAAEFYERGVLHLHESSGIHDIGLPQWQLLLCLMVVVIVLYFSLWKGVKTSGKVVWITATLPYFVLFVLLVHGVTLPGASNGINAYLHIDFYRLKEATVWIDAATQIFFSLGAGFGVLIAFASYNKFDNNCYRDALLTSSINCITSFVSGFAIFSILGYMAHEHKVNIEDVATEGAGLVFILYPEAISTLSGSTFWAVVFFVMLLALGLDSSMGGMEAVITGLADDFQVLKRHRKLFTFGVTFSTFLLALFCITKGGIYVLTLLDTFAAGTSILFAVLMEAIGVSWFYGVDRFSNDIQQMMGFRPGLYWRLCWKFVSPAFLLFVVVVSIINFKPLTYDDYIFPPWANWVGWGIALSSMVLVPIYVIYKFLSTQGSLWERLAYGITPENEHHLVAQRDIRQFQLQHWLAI
In data set [3] the target is human recombinant serotonin transporter (SERT) (Homo sapiens (Human), UniProt P31645). Briefly: radioligand binding assay, serotonin transporter. The following applies: 11 test concentrations, duplicates. On the procedure:
as §1, §2

For data set [4] the following is noted: active metabolites of sibutramine; cited from earlier work.

human recombinant dopamine transporter (DAT), sequence (Q01959 whole entry): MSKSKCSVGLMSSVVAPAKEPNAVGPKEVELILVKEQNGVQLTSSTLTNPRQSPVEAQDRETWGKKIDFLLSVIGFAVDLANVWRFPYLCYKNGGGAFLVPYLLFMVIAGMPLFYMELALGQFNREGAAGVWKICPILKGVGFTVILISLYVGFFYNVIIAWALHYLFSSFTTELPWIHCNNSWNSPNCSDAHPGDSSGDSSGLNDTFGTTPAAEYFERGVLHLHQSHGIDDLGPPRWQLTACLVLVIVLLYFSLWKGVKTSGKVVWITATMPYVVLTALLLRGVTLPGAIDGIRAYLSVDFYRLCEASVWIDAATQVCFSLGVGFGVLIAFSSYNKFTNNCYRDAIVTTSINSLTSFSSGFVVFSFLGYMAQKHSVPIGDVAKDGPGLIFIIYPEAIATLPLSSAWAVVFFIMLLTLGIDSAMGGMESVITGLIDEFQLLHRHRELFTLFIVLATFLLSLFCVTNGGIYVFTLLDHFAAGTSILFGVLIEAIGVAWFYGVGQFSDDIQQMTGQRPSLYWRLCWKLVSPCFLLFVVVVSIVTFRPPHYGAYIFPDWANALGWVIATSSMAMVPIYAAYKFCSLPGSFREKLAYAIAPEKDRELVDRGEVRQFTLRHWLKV

In the case of `CC(C)CC(NCCCC(N)=O)C1(c2ccc(Cl)c(Cl)c2)CCC1` (racemic) [Compound 33a-Racemic], the Ki was 1.5 nM in data set [1], 50.1 nM in data set [2] and 8.1 nM in data set [3].
In the case of `CCOc1ccc(C2(C(CC(C)C)NCCCC(N)=O)CCC2)cc1` (racemic) [Compound 33b-Racemic], the Ki in data set [1] was 472 nM; in data set [2], more than 10000 nM; in data set [3] it was 5.49 nM.
On to `CC(C)C[C@@H](NCCCC(N)=O)C1(c2ccc(Cl)c(Cl)c2)CCC1` (single isomer, unassigned; isomer-1) [33a-(R)-Isomer], for which the Ki came to 0.91 nM in data set [1], 30.3 nM in data set [2] and 2.3 nM in data set [3].
For `CC(C)C[C@H](NCCCC(N)=O)C1(c2ccc(Cl)c(Cl)c2)CCC1` (single isomer, unassigned; isomer-2) [33a-(S)-Isomer], in that order: 126 nM, 3420 nM and 300 nM.
For the molecule `CNC(CC(C)C)C1(c2ccc(Cl)cc2)CCC1` (centres unmarked) [Compound M1], the elimination half-life in data set [4] was 14 h.
As for `CC(C)CC(N)C1(c2ccc(Cl)cc2)CCC1` (centres unmarked) [Compound M2], the elimination half-life in data set [4] is 16 h.
